Experimental data from US7598344B2, “Composition, method and use of bi-functional biomaterials” (Board of Regents, The University of Texas System, priority 2002, dated 2009).
Ends that are not written are not given here.

What was measured:
[1] = Biotinylated T59 peptide binding, streptavidin-FITC labeling, on PPyCl; settings: 15 μM peptide, 0.5×0.5 cm^2 substrate
Description: (§1) (b) 15 μM peptide bound to 0.5×0.5 cm^2 PPyCl substrate. (c) 15 μM peptide bound to 0.5×0.5 cm^2 PPyPSS substrate. (d) 15 μM peptide bound to 0.5×0.5 cm^2 polystyrene (PS) substrate. All samples were incubated with equal concentrations of streptavidin-FITC. Bar, 10 μm.
(§2) Additional working example data were obtained for the polypyrrole system. A peptide was synthesized whose sequence was determined from the T59 phage (ie., SEQ ID NO. 1).

[2] = Biotinylated T59 peptide binding, streptavidin-FITC labeling, on polystyrene; settings: 15 μM peptide, 0.5×0.5 cm^2 substrate
Description: as §1, §2

[3] = serum-containing media, pH 7.4, 15% serum; 3 hr, 7 days, 3 weeks
Description: Binding was studied using biotinylated T59 peptide and streptavidin-FITC labeling. (a) control substrate in which no T59 peptide was added, 0.5×0.5 cm2 PPyCl substrates (b) and (c) were incubated with 15 μM peptide, the samples were then placed in serum-containing media (pH 7.4 and 15% serum) for 3 hr (b), 7 days (c), and 3 weeks (d). Bar, 10 μm.
In addition, T59 peptide binding stability in serum-containing medium was also evaluated in working examples using immunofluorescence (note that all previous experiments were done in saline buffer).

THRTSTLDYFVI (also: biotinylated, position not given here) [T59 peptide]
peptide binding to PPyCl [1]: binds to PPyCl | peptide binding to polystyrene (PS) [2]: not to PPyPSS or to polystyrene (PS) | binding stability of PPyCl-bound peptide [3]: a significant fraction of T59 peptides remained bound to PPyCl even after 3 weeks
